The source made the active and inactive calls. No cut-off for these calls is given here.
Key:
[1] = molecular target: T1, Chromobox protein homolog 7 (Homo sapiens) (UniProt O95931); assay: Antagonist activity at CBX7ChD (7 to 66 residues) expressed in human PC3 cells assessed as transcriptional derepression of p16INK4a at 50 to 250 uM after 12 hrs by qPCR method; type: cell-based; conditions: PC-3
T1 sequence (whole entry): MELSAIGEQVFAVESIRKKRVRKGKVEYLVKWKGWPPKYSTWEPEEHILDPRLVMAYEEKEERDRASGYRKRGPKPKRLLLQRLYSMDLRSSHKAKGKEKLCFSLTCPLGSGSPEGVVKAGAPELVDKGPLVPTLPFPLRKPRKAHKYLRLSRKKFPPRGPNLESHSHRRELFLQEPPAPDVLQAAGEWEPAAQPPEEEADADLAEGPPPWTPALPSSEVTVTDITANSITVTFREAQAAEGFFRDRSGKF

[2] = molecular target: T2, Chromobox protein homolog 7 (Homo sapiens, UniProt O95931); assay: Binding affinity to CBX7ChD (7 to 66 residues) (unknown origin) expressed in RIPL-BL21 (DE3)-CodonPlus competent cells in presence of FITC-labeled SETDB1-K1170me3/H3K27me3/ANRIL-LoopC RNA by fluorescence anisotropy assay
T2 sequence (O95931 whole entry): T1 sequence (whole entry)

[3] = molecular target: T2, Chromobox protein homolog 7; assay: Binding affinity to CBX7ChD (7 to 66 residues) (unknown origin) expressed in RIPL-BL21 (DE3)-CodonPlus competent cells assessed as compound/protein/FITC-labeled loop C of ANRIL ternary complex formation by fluorescence anisotropy assay
[4] = molecular target: T3, Chromobox protein homolog 7 (Mus musculus) (UniProt Q8VDS3); assay: Antagonist activity at CBX7ChD (7 to 66 residues) expressed in mouse embryoid bodies assessed as transcriptional derepression of p16INK4a mRNA levels at 1 to 2 uM after 12 hrs by qPCR method
T3 sequence (whole entry): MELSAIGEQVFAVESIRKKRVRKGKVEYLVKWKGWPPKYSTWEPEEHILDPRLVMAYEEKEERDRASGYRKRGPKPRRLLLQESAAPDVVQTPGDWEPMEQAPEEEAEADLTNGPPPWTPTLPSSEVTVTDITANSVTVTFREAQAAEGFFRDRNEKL

[5] = molecular target: T3, Chromobox protein homolog 7 (Mus musculus); assay: Antagonist activity at CBX7ChD (7 to 66 residues) expressed in mouse embryonic stem cells assessed as transcriptional derepression of Hoxd3 at 0.5 uM after 18 to 36 hrs by qPCR method; type: cell-based
[6] = molecular target: T1, Chromobox protein homolog 7 (Homo sapiens); assay: Antagonist activity at CBX7ChD (7 to 66 residues) expressed in human PC3 cells assessed as transcriptional derepression of p16INK4a after 12 hrs by qPCR method; type: cell-based; conditions: PC-3
[7] = Induction of transcriptional derepression of Gapdh in mouse embryonic stem cells at 0.5 uM after 18 to 36 hrs by qPCR method; type: cell-based; conditions: embryonic stem cell
[8] = molecular target: T3, Chromobox protein homolog 7 (Mus musculus); assay: Antagonist activity at CBX7ChD (7 to 66 residues) expressed in mouse embryonic stem cells assessed as p16INK4a expression levels at 1 to 2 uM after 12 hrs by Western blot analysis; type: cell-based
[9] = molecular target: T1, Chromobox protein homolog 7 (Homo sapiens); assay: Binding affinity to CBX7ChD (7 to 66 residues) (unknown origin) expressed in RIPL-BL21 (DE3)-CodonPlus competent cells assessed as enhancement of FITC-ANRIL-loopC/FITC-16mer-RNA binding to protein by fluorescence anisotropy assay
[10] = Induction of transcriptional derepression of HIF1a in human PC3 cells at 1 to 5 uM after 12 hrs by qPCR method; type: cell-based; conditions: pc-3, 12 h
[11] = molecular target: T3, Chromobox protein homolog 7 (Mus musculus); assay: Antagonist activity at CBX7ChD (7 to 66 residues) expressed in mouse embryonic stem cells assessed as transcriptional derepression of noggin at 0.5 uM after 18 to 36 hrs by qPCR method; type: cell-based
[12] = molecular target: T2, Chromobox protein homolog 7; assay: Binding affinity to 15N-labeled CBX7ChD (7 to 66 residues) (unknown origin) expressed in RIPL-BL21 (DE3)-CodonPlus competent cells by HSQC/NMR titration
[13] = molecular target: T3, Chromobox protein homolog 7 (Mus musculus); assay: Antagonist activity at CBX7ChD (7 to 66 residues) expressed in mouse embryonic stem cells assessed as reduction of protein occupancy at Hoxd3 gene locus at 0.5 uM after 18 to 36 hrs by ChIP analysis; type: cell-based

COc1cccc(C(=O)N2CCN(C(=O)COc3cc(C)c(NS(C)(=O)=O)c(C)c3)CC2)c1OC
inhibition [1]: inactive

CCS(=O)(=O)Nc1c(C)cc(OCC(=O)N2CCN(C(=O)c3cccc(OC)c3OC)CC2)cc1C
inhibition [1]: inactive
Ki [2]: 10 µM

COc1cccc(C(=O)N2CCN(C(=O)COc3cc(C)c(N)c(C(C)C)c3)CC2)c1OC
inhibition [1]: inactive

CCS(=O)(=O)Nc1ccc(OCC(=O)N2CCN(C(=O)c3cccc(OC)c3OC)CC2)cc1C
inhibition [1]: inactive
Ki [2]: 25 µM

COc1cccc(C(=O)N2CCN(C(=O)COc3ccc(N)c(C)c3)CC2)c1OC
Ki [2]: 39.3 µM

COc1cccc(C(=O)N2CCN(C(=O)COc3cccc(C)c3)CC2)c1OC
inhibition [1]: inactive
Ki [2]: 33.1 µM
Kd [3]: 125 µM

COc1cccc(C(=O)N2CCN(C(=O)COc3ccc(NC(C)=O)c(C)c3)CC2)c1OC
inhibition [1]: inactive

COc1cccc(C(=O)N2CCN(C(=O)COc3cc(C)c(NC(N)=O)c(C)c3)CC2)c1OC
Ki [2]: 4.8 µM

COc1cccc(C(=O)N2CCN(C(=O)COc3cc(C)c(N)c(C)c3)CC2)c1OC
Ki [2]: 16.9 µM

Cc1ccccc1Cn1c(=N)n(CC(O)c2ccc(Cl)c(Cl)c2)c2ccccc21 (stereo not given)
inhibition [4]: Active
inhibition [5]: Active
inhibition [6]: Dose-dependent effect
Activity [7]: Non-toxic
inhibition [8]: Active
Activity [9]: Dose-dependent effect
Kd [3]: 23.8 µM
Activity [10]: Non-toxic
inhibition [11]: Active
Kd [12]: 500 µM
inhibition [13]: Active

COc1cccc(C(=O)N2CCN(C(=O)COc3ccc(NC(N)=O)c(C)c3)CC2)c1OC
Ki [2]: 10 µM
